21 compounds from patent US10981911B2, “Imidazopyrrolopyridine as inhibitors of the JAK family of kinases” (Janssen Pharmaceutica NV, priority 2016, dated 2021) can be followed below.

Assay type in all cases: biochemical
In one test the target is Tyk2-JH1JH2 (Homo sapiens (Human), UniProt P29597, C1142A/C936A). The test is described as follows: Enzymatic inhibition assay (RapidFire HTMS), Tyk2. The note with it: 50 μM ATP, 200 μM substrate. In a few lines: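 Compounds were tested in duplicate as 11-point 1:3 or 1:4 DMSO dilutions (≤0.25% DMSO final) in 20 μL reactions at 25 °C for 90 min, with Tyk2 pre-incubated 30 min with 2 mM ATP. Reactions were quenched with TFA plus internal standard peptide, and phosphorylated product was quantified by RapidFire C4 SPE–ESI MS.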

The next test deals with JAK3-JH1JH2 (Homo sapiens (Human), UniProt P52333). The test is described as follows: Enzymatic inhibition assay (RapidFire HTMS), JAK3. Conditions: 150 μM ATP, 40 μM substrate. The method in brief: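 Compounds tested in duplicate over 11-point 1:3 or 1:4 dilution series; no-enzyme wells as negative control. After 45 min at 25 °C, TFA quench with internal standard, and phosphorylated product quantified by RapidFire–QTrap mass spectrometry relative to the uninhibited reaction.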

The target in a further test is JAK2-JH1JH2 (Homo sapiens (Human), UniProt O60674). The test is described as follows: Enzymatic inhibition assay (RapidFire HTMS), JAK2. The note with it: 30 μM ATP, 40 μM substrate. In a few lines:
(§1)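 Quenched with 0.5% TFA plus internal-standard peptide; phosphorylated product quantified by RapidFire C4 SPE–ESI-MS, 11-point 1:3 or 1:4 dilutions in duplicate.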

In the next test the target is JAK1-JH1JH2 (Homo sapiens (Human), UniProt P23458). The test is described as follows: Enzymatic inhibition assay (RapidFire HTMS), JAK1. The note with it: 12.5 μM ATP, 200 μM substrate; read-out: JAK1-JH2JH1 IC50. The method in brief:
as §1

Bounds are passed on as bounds.

JAK1-JH1JH2, sequence (P23458 574-1154): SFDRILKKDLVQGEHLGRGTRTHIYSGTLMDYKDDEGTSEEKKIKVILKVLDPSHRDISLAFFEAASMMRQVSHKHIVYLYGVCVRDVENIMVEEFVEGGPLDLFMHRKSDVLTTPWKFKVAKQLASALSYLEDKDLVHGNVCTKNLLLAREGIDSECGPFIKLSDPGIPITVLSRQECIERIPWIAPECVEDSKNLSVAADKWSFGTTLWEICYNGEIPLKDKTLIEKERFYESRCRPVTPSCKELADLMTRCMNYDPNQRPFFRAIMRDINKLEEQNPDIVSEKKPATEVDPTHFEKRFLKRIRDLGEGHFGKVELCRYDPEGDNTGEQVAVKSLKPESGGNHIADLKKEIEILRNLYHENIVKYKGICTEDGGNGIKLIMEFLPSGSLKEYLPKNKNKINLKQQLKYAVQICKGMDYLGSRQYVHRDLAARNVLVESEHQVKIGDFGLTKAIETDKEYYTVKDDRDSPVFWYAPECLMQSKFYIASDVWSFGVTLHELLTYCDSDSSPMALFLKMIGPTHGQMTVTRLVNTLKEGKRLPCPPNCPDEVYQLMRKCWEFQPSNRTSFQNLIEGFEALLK
JAK2-JH1JH2, sequence (O60674 532-1132): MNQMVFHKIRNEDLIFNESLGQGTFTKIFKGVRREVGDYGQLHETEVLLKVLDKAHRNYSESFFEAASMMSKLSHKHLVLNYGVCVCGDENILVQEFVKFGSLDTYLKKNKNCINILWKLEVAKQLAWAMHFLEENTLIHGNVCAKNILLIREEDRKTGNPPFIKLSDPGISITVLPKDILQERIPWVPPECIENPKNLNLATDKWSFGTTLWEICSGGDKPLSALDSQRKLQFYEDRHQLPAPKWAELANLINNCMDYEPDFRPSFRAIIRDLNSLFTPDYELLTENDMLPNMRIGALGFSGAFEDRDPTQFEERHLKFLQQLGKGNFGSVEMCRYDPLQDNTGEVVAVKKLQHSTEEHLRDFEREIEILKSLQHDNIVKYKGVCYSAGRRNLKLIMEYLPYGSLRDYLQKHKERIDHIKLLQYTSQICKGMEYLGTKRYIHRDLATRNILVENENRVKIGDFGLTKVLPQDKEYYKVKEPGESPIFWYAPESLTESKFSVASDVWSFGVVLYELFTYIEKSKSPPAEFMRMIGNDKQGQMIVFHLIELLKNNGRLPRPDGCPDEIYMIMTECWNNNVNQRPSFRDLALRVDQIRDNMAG
Tyk2-JH1JH2, sequence (P29597 580-1182 C936A/C1142A): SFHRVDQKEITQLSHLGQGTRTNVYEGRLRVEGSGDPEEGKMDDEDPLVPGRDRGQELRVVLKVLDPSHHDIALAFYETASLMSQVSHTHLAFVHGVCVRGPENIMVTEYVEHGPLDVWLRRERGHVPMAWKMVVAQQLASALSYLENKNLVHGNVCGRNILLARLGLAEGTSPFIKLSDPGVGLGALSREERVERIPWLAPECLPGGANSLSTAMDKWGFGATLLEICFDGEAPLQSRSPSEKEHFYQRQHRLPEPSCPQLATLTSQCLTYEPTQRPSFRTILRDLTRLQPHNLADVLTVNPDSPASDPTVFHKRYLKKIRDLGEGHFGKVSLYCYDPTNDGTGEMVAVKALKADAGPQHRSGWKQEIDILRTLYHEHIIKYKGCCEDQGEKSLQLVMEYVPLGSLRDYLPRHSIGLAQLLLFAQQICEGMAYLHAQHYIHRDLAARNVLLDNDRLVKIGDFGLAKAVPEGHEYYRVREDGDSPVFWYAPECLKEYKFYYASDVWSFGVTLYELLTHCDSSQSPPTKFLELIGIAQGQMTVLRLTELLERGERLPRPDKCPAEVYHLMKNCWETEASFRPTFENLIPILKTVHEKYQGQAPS
JAK3-JH1JH2, sequence (P52333 512-1124): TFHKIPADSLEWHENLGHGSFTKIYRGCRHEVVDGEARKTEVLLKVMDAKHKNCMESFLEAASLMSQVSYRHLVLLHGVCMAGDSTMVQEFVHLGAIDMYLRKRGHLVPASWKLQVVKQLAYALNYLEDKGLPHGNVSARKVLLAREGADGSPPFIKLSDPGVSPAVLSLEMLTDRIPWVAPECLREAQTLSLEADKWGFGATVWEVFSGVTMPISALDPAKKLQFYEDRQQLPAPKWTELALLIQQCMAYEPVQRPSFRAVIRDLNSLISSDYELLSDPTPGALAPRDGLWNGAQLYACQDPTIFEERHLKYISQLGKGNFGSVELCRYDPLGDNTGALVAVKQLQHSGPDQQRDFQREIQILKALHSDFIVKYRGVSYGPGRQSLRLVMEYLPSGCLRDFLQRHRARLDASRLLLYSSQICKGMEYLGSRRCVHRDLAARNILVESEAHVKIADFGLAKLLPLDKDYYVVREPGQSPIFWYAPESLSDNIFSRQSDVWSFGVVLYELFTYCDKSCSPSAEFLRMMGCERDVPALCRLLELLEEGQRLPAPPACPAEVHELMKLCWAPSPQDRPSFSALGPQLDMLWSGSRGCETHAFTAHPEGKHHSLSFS

`N#CC[C@H]1CC[C@H](n2c(CC(=O)NCc3ccc(F)cc3)nc3cnc4[nH]ccc4c32)CC1` [Ex. 45, 2-(1-((1r,4r)-4-(Cyanomethyl)cyclohexyl)-1,6-dihydroimidazo[4,5-d]pyrrolo[2,3-b]pyridin-2-yl)-N-(4-fluorobenzyl)acetamide]: the IC50 against Tyk2-JH1JH2 turned out to be 12.2 nM; at JAK3-JH1JH2, 183 nM; against JAK2-JH1JH2, 6.1 nM; on JAK1-JH1JH2 it was 0.2 nM.

`N#CC[C@H]1CC[C@H](n2c(CC(=O)N3CCC(O)CC3)nc3cnc4[nH]ccc4c32)CC1` [Ex. 12, 2-((1r,4r)-4-(2-(2-(4-Hydroxypiperidin-1-yl)-2-oxoethyl)imidazo[4,5-d]pyrrolo[2,3-b]pyridin-1(6H)-yl)cyclohexyl)acetonitrile]: the IC50 worked out at 1.4 nM against Tyk2-JH1JH2, 99.4 nM against JAK3-JH1JH2, 9.2 nM at JAK2-JH1JH2 and 0.1 nM on JAK1-JH1JH2.

As for `N#CC[C@H]1CC[C@H](n2c(-c3ccc(S(F)(F)(F)(F)F)cc3)nc3cnc4[nH]ccc4c32)CC1` [Ex. 143, 2-((1r,4r)-4-(2-(4-(Pentafluoro-λ^6-sulfanyl)phenyl)imidazo[4,5-d]pyrrolo[2,3-b]pyridin-1(6H)-yl)cyclohexyl)acetonitrile], the IC50 against Tyk2-JH1JH2 came out at 117 nM; against JAK3-JH1JH2, 1270 nM; against JAK2-JH1JH2, 38.5 nM; at JAK1-JH1JH2, 0.9 nM.

In the case of `N#CC[C@H]1CC[C@H](n2c(CC(=O)N3CCC(C#N)CC3)nc3cnc4[nH]ccc4c32)CC1` [Ex. 105, 1-(2-(1-((1r,4r)-4-(Cyanomethyl)cyclohexyl)-1,6-dihydroimidazo[4,5-d]pyrrolo[2,3-b]pyridin-2-yl)acetyl)piperidine-4-carbonitrile], the IC50 came out at 6.9 nM against Tyk2-JH1JH2, 204 nM against JAK3-JH1JH2, 19.4 nM on JAK2-JH1JH2 and 0.6 nM on JAK1-JH1JH2.

As for `N#CC[C@H]1CC[C@H](n2c(CNC(N)=O)nc3cnc4[nH]ccc4c32)CC1` [Ex. 40, 1-((1-((1r,4r)-4-(Cyanomethyl)cyclohexyl)-1,6-dihydroimidazo[4,5-d]pyrrolo[2,3-b]pyridin-2-yl)methyl)urea], the IC50 at Tyk2-JH1JH2 was 0.3 nM; on JAK3-JH1JH2, 47 nM; on JAK2-JH1JH2 it was 1 nM; at JAK1-JH1JH2, less than 0.2 nM.

Consider `CN1CCC(NC(=O)c2nc3cnc4[nH]ccc4c3n2[C@H]2CC[C@H](CC#N)CC2)CC1` [Ex. 84, 1-((1r,4r)-4-(Cyanomethyl)cyclohexyl)-N-(1-methylpiperidin-4-yl)-1,6-dihydroimidazo[4,5-d]pyrrolo[2,3-b]pyridine-2-carboxamide], for which the IC50 on Tyk2-JH1JH2 worked out at 10.4 nM; against JAK3-JH1JH2, 1120 nM; against JAK2-JH1JH2, 27.1 nM; at JAK1-JH1JH2, 0.4 nM.

With `N#CC[C@H]1CC[C@H](n2c(CC(=O)NCC34CC5CC(CC(C5)C3)C4)nc3cnc4[nH]ccc4c32)CC1` [Ex. 199, N-((3R,5R,7R)-Adamantan-1-ylmethyl)-2-(1-((1r,4r)-4-(cyanomethyl)cyclohexyl)-1,6-dihydroimidazo[4,5-d]pyrrolo[2,3-b]pyridin-2-yl)acetamide], the 50% inhibitory concentration (IC50) on Tyk2-JH1JH2 is 7.9 nM; on JAK3-JH1JH2, 109 nM; against JAK2-JH1JH2, 3.6 nM; on JAK1-JH1JH2, less than 4 nM.

`CC(C)(O)CN1CCC(c2nc3cnc4[nH]ccc4c3n2[C@H]2CC[C@H](CC#N)CC2)CC1` [Ex. 168, 2-((1r,4r)-4-(2-(1-(2-Hydroxy-2-methylpropyl)piperidin-4-yl)imidazo[4,5-d]pyrrolo[2,3-b]pyridin-1(6H)-yl)cyclohexyl)acetonitrile]: the IC50 against Tyk2-JH1JH2 stood at 30.7 nM; at JAK3-JH1JH2, 1570 nM; at JAK2-JH1JH2, 34.2 nM; on JAK1-JH1JH2 it was 2 nM.

Take `N#CC[C@H]1CC[C@H](n2c(-c3ccc(C(=O)c4ccc(CO)cc4)cc3)nc3cnc4[nH]ccc4c32)CC1` [Ex. 121, 2-((1r,4r)-4-(2-(4-(4-(Hydroxymethyl)benzoyl)phenyl)imidazo[4,5-d]pyrrolo[2,3-b]pyridin-1(6H)-yl)cyclohexyl)acetonitrile]: the IC50 against Tyk2-JH1JH2 is 44.3 nM; against JAK3-JH1JH2, 431 nM; against JAK2-JH1JH2, 11.4 nM; at JAK1-JH1JH2 it was 0.7 nM.

For the compound `CNC(=O)Cc1nc2cnc3[nH]ccc3c2n1C12CCC(CC#N)(CC1)CC2` [Ex. 209, 2-(1-(4-(Cyanomethyl)bicyclo[2.2.2]octan-1-yl)-1,6-dihydroimidazo[4,5-d]pyrrolo[2,3-b]pyridin-2-yl)-N-methylacetamide], the IC50 at Tyk2-JH1JH2 came out at 651 nM; at JAK3-JH1JH2 it was 604 nM; at JAK2-JH1JH2, 520 nM; on JAK1-JH1JH2 it was 18.9 nM.

Turning to `N#CC[C@H]1CC[C@H](n2c(CN/C(=N/O)C3CCCCC3)nc3cnc4[nH]ccc4c32)CC1` [Ex. 204, N-((1-((1r,4r)-4-(Cyanomethyl)cyclohexyl)-1,6-dihydroimidazo[4,5-d]pyrrolo[2,3-b]pyridin-2-yl)methyl)-N′-hydroxycyclohexanecarboximidamide], the IC50 against Tyk2-JH1JH2 is 10.7 nM; against JAK3-JH1JH2, 427 nM; on JAK2-JH1JH2, 13.1 nM; on JAK1-JH1JH2 it was 6.7 nM.

Regarding `N#CC[C@H]1CC[C@H](n2c(-c3ncc[nH]3)nc3cnc4[nH]ccc4c32)CC1` [Ex. 56, 2-((1r,4r)-4-(2-(1H-Imidazol-2-yl)imidazo[4,5-d]pyrrolo[2,3-b]pyridin-1(6H)-yl)cyclohexyl)acetonitrile], the IC50 came to 7.2 nM against Tyk2-JH1JH2, 32.9 nM at JAK3-JH1JH2, 1.9 nM against JAK2-JH1JH2 and 0.2 nM at JAK1-JH1JH2.

For the compound `N#CC[C@H]1CC[C@H](n2c(CC(=O)N3CC[C@H](O)C3)nc3cnc4[nH]ccc4c32)CC1` [Ex. 42, 2-((1S,4r)-4-(2-(2-((S)-3-Hydroxypyrrolidin-1-yl)-2-oxoethyl)imidazo[4,5-d]pyrrolo[2,3-b]pyridin-1(6H)-yl)cyclohexyl)acetonitrile], the IC50 against Tyk2-JH1JH2 is 7.8 nM; against JAK3-JH1JH2 it was 439 nM; against JAK2-JH1JH2 it was 24.4 nM; on JAK1-JH1JH2 it was 0.2 nM.

For the compound `N#CC[C@H]1CC[C@H](n2c(CNC(=O)NCC3CCCCC3)nc3cnc4[nH]ccc4c32)CC1` [Ex. 155, 1-((1-((1r,4r)-4-(Cyanomethyl)cyclohexyl)-1,6-dihydroimidazo[4,5-d]pyrrolo[2,3-b]pyridin-2-yl)methyl)-3-(cyclohexylmethyl)urea], the half-maximal inhibitory concentration (IC50) against Tyk2-JH1JH2 was determined as 20.1 nM; against JAK3-JH1JH2, 368 nM; on JAK2-JH1JH2, 48.5 nM; at JAK1-JH1JH2, 1.3 nM.

Consider `N#CC[C@H]1CC[C@H](NC(=O)Cc2nc3cnc4[nH]ccc4c3n2[C@H]2CC[C@H](CC#N)CC2)CC1` [Ex. 19, N-((1r,4r)-4-(Cyanomethyl)cyclohexyl)-2-(1-((1r,4r)-4-(cyanomethyl)cyclohexyl)-1,6-dihydroimidazo[4,5-d]pyrrolo[2,3-b]pyridin-2-yl)acetamide], for which the IC50 against Tyk2-JH1JH2 was 4.4 nM; against JAK3-JH1JH2, 31.8 nM; against JAK2-JH1JH2, 2.4 nM; on JAK1-JH1JH2, 0.1 nM.

As to `N#CC[C@H]1CC[C@H](n2c(CC(=O)N[C@H]3CC[C@H](O)CC3)nc3cnc4[nH]ccc4c32)CC1` [Ex. 33, 2-(1-((1r,4r)-4-(Cyanomethyl)cyclohexyl)-1,6-dihydroimidazo[4,5-d]pyrrolo[2,3-b]pyridin-2-yl)-N-((1r,4r)-4-hydroxycyclohexyl)acetamide], the IC50 on Tyk2-JH1JH2 worked out at 3.8 nM; against JAK3-JH1JH2, 38 nM; against JAK2-JH1JH2 it was 2.3 nM; at JAK1-JH1JH2, 0.2 nM.

In the case of `COCC(C)NC(=O)c1nc2cnc3[nH]ccc3c2n1[C@H]1CC[C@H](CC#N)CC1` (stereo partly drawn) [Ex. 179, 1-((1r,4r)-4-(Cyanomethyl)cyclohexyl)-N-(1-methoxypropan-2-yl)-1,6-dihydroimidazo[4,5-d]pyrrolo[2,3-b]pyridine-2-carboxamide], the IC50 at Tyk2-JH1JH2 is 30 nM; at JAK3-JH1JH2 it was 641 nM; at JAK2-JH1JH2 it was 20.9 nM; on JAK1-JH1JH2, 1.4 nM.

Take `N#CC[C@H]1CC[C@H](n2c(-c3cncs3)nc3cnc4[nH]ccc4c32)CC1` [Ex. 119, 2-((1r,4r)-4-(2-(Thiazol-5-yl)imidazo[4,5-d]pyrrolo[2,3-b]pyridin-1(6H)-yl)cyclohexyl)acetonitrile]: the IC50 on Tyk2-JH1JH2 amounted to 15.7 nM; against JAK3-JH1JH2 it was 117 nM; at JAK2-JH1JH2 it was 8.8 nM; at JAK1-JH1JH2, 0.7 nM.

Regarding `N#CCC12CCC(n3c(CC(N)=O)nc4cnc5[nH]ccc5c43)(CC1)CC2` [Ex. 206, 2-(1-(4-(Cyanomethyl)bicyclo[2.2.2]octan-1-yl)-1,6-dihydroimidazo[4,5-d]pyrrolo[2,3-b]pyridin-2-yl)acetamide], the IC50 at Tyk2-JH1JH2 came to 158 nM; against JAK3-JH1JH2 it was 881 nM; on JAK2-JH1JH2 it was 210 nM; at JAK1-JH1JH2 it was 5.6 nM.

Take `N#CC[C@H]1CC[C@H](n2c(CC(=O)N3CC[C@@H](O)C3)nc3cnc4[nH]ccc4c32)CC1` [Ex. 127, 2-((1r,4r)-4-(2-(2-((R)-3-Hydroxypyrrolidin-1-yl)-2-oxoethyl)imidazo[4,5-d]pyrrolo[2,3-b]pyridin-1(6H)-yl)cyclohexyl)acetonitrile]: the IC50 worked out at 12.8 nM on Tyk2-JH1JH2, 788 nM against JAK3-JH1JH2, 69.4 nM against JAK2-JH1JH2 and 0.7 nM on JAK1-JH1JH2.

For the compound `N#CCC12CCC(n3c(CC(=O)Nc4ccccc4)nc4cnc5[nH]ccc5c43)(CC1)CC2` [Ex. 207, 2-(1-(4-(Cyanomethyl)bicyclo[2.2.2]octan-1-yl)-1,6-dihydroimidazo[4,5-d]pyrrolo[2,3-b]pyridin-2-yl)-N-phenylacetamide], the half-inhibitory concentration (IC50) is 524 nM against Tyk2-JH1JH2, 375 nM against JAK3-JH1JH2, 198 nM against JAK2-JH1JH2 and 6.8 nM at JAK1-JH1JH2.
